Reference: ChEMBL document CHEMBL1155313, “Inhibitory effect of chalcones and their derivatives from Glycyrrhiza inflata on protein tyrosine phosphatase 1B” (Bioorg Med Chem Lett, 2009)

target: T1, Tyrosine-protein phosphatase non-receptor type 1 (Homo sapiens, UniProt P18031); experiment: Inhibition of recombinant human PTP1B assessed as hydrolysis of p-nitrophenyl phosphate after 30 mins
T1 sequence (P18031 whole entry): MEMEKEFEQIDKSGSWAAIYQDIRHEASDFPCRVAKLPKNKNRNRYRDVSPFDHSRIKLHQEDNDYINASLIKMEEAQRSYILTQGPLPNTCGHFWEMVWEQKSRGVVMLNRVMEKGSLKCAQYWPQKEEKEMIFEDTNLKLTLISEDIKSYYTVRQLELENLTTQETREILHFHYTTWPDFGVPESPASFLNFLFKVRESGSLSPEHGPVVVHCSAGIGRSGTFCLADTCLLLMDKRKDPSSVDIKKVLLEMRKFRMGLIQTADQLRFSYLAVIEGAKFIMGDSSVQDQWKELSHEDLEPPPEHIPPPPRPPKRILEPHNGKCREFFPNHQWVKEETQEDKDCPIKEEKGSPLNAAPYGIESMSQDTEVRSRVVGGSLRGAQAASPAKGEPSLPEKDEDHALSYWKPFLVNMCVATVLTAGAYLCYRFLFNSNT

Row | Compound | IC50 [µM]
1 | C=C(C)C(C)c1cc(/C=C/C(=O)c2ccc(O)cc2)c(OC)cc1O (centres undefined) | 20.7
2 | C=CC(C)(C)c1cc(/C=C/C(=O)c2ccc(OC(C)=O)cc2)c(OC)cc1OC | 29.2
3 | C=CC(C)(C)c1cc(/C=C/C(=O)c2ccc(OC(C)=O)cc2)c(OC)cc1OC(C)=O | > 50
4 | C=CC(C)(C)c1cc(/C=C/C(=O)c2ccc(O)cc2)c(OC)cc1OC | 18.3
5 | C=CC(C)(C)c1cc(/C=C/C(=O)c2ccc(OC(C)=O)cc2)c(OC)cc1O | 19.2
6 | C=CC(C)(C)c1cc(/C=C/C(=O)c2ccc(OC)cc2)c(OC)cc1OC | 19.8
7 | O=C1C[C@@H](c2ccc(O)cc2)Oc2cc(O)ccc21 [LIQUIRTIGENIN] | > 50
8 | C=CC(C)(C)c1cc(/C=C/C(=O)c2ccc(O)cc2)c(OC)cc1O [LICOAGROCHACONE A] | 19.1
9 | C=CC(C)(C)c1cc(/C=C/C(=O)c2ccc(OC)cc2)c(OC)cc1O | 11.7
10 | C=CC(C)(C)c1cc(/C=C/C(=O)c2ccc(OC)cc2)c(OC)cc1OC(C)=O | 19.4
11 | O=C(/C=C/c1ccc(O)cc1)c1ccc(O)cc1O [ISOLIQUIRITIGENIN] | > 50
12 | C=CC(C)(C)c1cc(/C=C/C(=O)c2ccc(O)cc2)c(OC)cc1OC(C)=O | 17.3
13 | COc1cc(O)ccc1/C=C/C(=O)c1ccc(O)cc1 [ECHINATIN] | > 50
14 | COc1c(/C=C/C(=O)c2ccc(O)cc2)ccc(O)c1CC=C(C)C | 30.9
